Measured values as given in patent publication US12648997B2, “Treatment of infections” (priority 2018, dated 2026).

Tests used:
[1] = Stability of daptomycin in transient daptomycin-linker hydrogel conjugates versus free daptomycin; type: physicochemical; conditions: pH 7.4, 37° C, at day seven; peak area ratio at 215 nm
Description: The relative stability of the covalently bound daptomycin in the transient daptomycin-linker hydrogel conjugates towards hydrolytic and other degradation pathways in comparison to free daptomycin was investigated. For that purpose, free daptomycin, transient daptomycin-linker HA-conjugate 5 and transient daptomycin-linker PEG-conjugate 9b were incubated at pH 7.4 and 37° C. The supernatants of the carrier samples were exchanged five times within a week and the daptomycin purity in these samples was analyzed by UPLC. In parallel, analytical samples of the free daptomycin control solution were also analyzed by UPLC at the same incubation times. The purity of daptomycin in the samples was calculated as the ratio of the peak area of the intact daptomycin peak at 215 nm relative to the area sum of all daptomycin-related peaks identified at 215 nm.

[2] = test system: Methicillin-sensitive Staphylococcus aureus (MSSA) MN8 strain biofilms; assay: In vitro biofilm eradication study (Calgary Biofilm Device); type: cell-based; conditions: TSB with 12 mg/mL BSA and 50 μg/mL calcium, 37° C, OD600
Description: This study was performed to investigate the daptomycin concentration required to fully eradicate biofilms when constantly exposed to daptomycin for one or three days. […] Biofilms were grown in tryptic soy broth (TSB) using a Methicillin-sensitive Staphylococcus aureus (MSSA) MN8 strain. Aliquots of a diluted culture of this bacterial strain in TSB, obtained from an inoculum of the respective strain on trypticase soy agar plates (TSA), were transferred to all but the negative control wells of flat-bottom 96-well microtiter plates. The bacterial biofilms were formed by immersing lids with pegs into the 96-well microtiter plates, followed by incubation for 24, 48 and 72 hours at 37° C. The differently aged biofilms were subsequently transferred into new microtiter plates using TSB media with addition of 12 mg/mL bovine serum albumin (BSA) and 50 μg/mL calcium as CaCl2. Daptomycin was added to the media as required to obtain concentrations of 2-1458 μg/mL. The plates were incubated for one or three days at 37° C. The biofilms were detached from the pegs by centrifugation, generating bacterial suspensions in the wells of the microtiter plates. The optical densities of these suspensions were measured (OD600) to determine the biofilm eradication concentrations. All measurements were performed in triplicates.

CCCCCCCCCC(=O)N[C@@H](Cc1c[nH]c2ccccc12)C(=O)N[C@H](CC(N)=O)C(=O)N[C@@H](CC(=O)O)C(=O)N[C@@H]1C(=O)NCC(=O)N[C@@H](CCCN)C(=O)N[C@@H](CC(=O)O)C(=O)N[C@H](C)C(=O)N[C@@H](CC(=O)O)C(=O)NCC(=O)N[C@H](CO)C(=O)N[C@@H]([C@H](C)CC(=O)O)C(=O)N[C@@H](CC(=O)c2ccccc2N)C(=O)O[C@@H]1C [daptomycin]
purity of the free daptomycin in the solution control sample [1]: 72%
daptomycin concentration needed to fully eradicate biofilms ([2]; 24 hours exposure, biofilms of all ages (24, 48, 72 h)): 486 µg/mL
daptomycin concentration needed to fully eradicate biofilms ([2]; three days exposure): 162 µg/mL
